Laboratory results as given in US11851389B2, “Cationic lipids for nucleic acid delivery and preparation thereof” (RAMOT AT TEL-AVIV UNIVERSITY LTD., priority 2016, dated 2023).
Entries after “also recorded” stand apart in the source; their conditions may differ.

What was measured:
[1] = test system: Human B-cell lymphoma suspension cells (RPMI-8226); assay: Cell viability after PLK1 silencing, XTT assay; assay type: cell-based; conditions: RPMI-8226, 48 hrs
Method: Human B-cell lymphoma suspension cells (RPMI-8226) were incubated with siPLK1-LNPs or siCtl-LNPs composed of either lipid 38 or 55 at different concentrations for 48 hrs. Cell viability affected by PLK1 down regulation was measured by XTT assay.

[2] = LNP size distribution, PDI and ζ potential by dynamic light scattering; assay type: physicochemical; conditions: LNP-siRNA formulations
Method: LNPs were prepared by using microfluidic micro mixture (Precision NanoSystems, Vancouver, BC, Canada) as described by Cohen et. al. One volume of lipid mixtures (cationic lipid, DSPC, Chol, DMG-PEG and DSPE-PEG Mal at 50:10:38:1.5:0.5 mole ratio, […] total lipid concentration) in ethanol and three volumes of siRNA (1:16 w/w siRNA to lipid) containing acetate buffer solutions were injected through the micro mixer at a combined flow rate of 2 mL/minute (0.5 mL/min for ethanol and 1.5 mL/min for aqueous buffer). For labeled LNPs, 10% of Alexa-647 labeled siRNA were incorporated. For Cy5 labeled particles, 10% Cy5 labeled non-targeted siRNA was used. The resultant mixture was dialyzed against PBS (pH 7.4) for 16 h to remove ethanol.
LNPs size distribution and ζ potential were determined by dynamic light scattering using a Malvern nano ZS ζ-sizer (Malvern instruments, UK). For size measurements, LNPs were diluted 1:20 in PBS. […] For ζ potential measurements, LNPs were diluted 1:200 in DDW. In some cases, as indicated, size and zeta potential measurements were performed in water.

[3] = test system: Human colon carcinoma cells (HCT 116); assay: In vitro expression of LUC pDNA, luminometer; assay type: cell-based; conditions: HCT 116, LNPs-LUC pDNA with DOPE, Chol, PEG-DMG, 48 hrs
Method: Human colon carcinoma cells (HCT 116) were incubated with LNPs-LUC pDNA at different concentrations for 48 hrs. Luciferase expression was measured by luminometer. Lipofectamine 2000 (Lipo 2000) was used as positive control. LNPs were composed of lipid 38 and different amounts of co-lipid DOPE, along with other co-lipids such as Chol, PEG-DMG.

[4] = test system: C57BL6/j mice; assay: In vivo delivery of luciferase mRNA to muscle cells, intramuscular, bioluminescence imaging; conditions: i.m., 1 mg/kg body weight
Method: LNPs composed of either lipid 54 or lipid 38 formulated with luciferase mRNA were administered intramuscularly in to C57BL6/j mice at 1 mg/kg body weight. Luciferase expression was measured by bioluminescence imaging system Biospace: (a) after 8 hrs of i.m. administration; and (b) after 24 hrs. […] The expression was still high 24 hrs after the administration of LNPs indicating the efficiency of these lipids in delivering mRNA in vivo.

[5] = test system: Cynomolgus monkeys; assay: Liver toxicity (serum ALT, AST) in non-human primate; assay type: in vivo; conditions: single i.v. 0.5 mg/kg, particles with siNC5, serum at 1 and 24 h, compared with MC3
Method: Cynomolgus monkeys (n=2 per group, males) received a single I.v. administration (1 ml/kg) of (0.5 mg/kg) of MC3 particles with siNC5 and lipid 38-based particles with siNC5 (0.5 mg/Kg). At 1 and 24 h post administration serum was collected at and analyzed for ALT, AST (by Roch Cobra Auto analyzer). Each data point is an average of 2 animals±SEM.

[6] = test system: C57BL6/j mice; assay: In vivo delivery of luciferase mRNA to liver, intravenous, bioluminescence imaging; conditions: intravenously, 1 mg/kg body weight
Method: LNPs composed of either lipid 54 or lipid 38 formulated with luciferase mRNA were administered intravenously into C57BL6/j mice at 1 mg/kg body weight. After 8 hrs, luciferase expression was measured by bioluminescence imaging system Biospace.
LNPs composed of lipid 38 formulated with luciferase mRNA were administered intravenously into C57BL6/j mice at 1 mg/kg body weight. After 8 hrs and 24 hrs of administration, luciferase expression was measured by bioluminescence imaging system Biospace.

[7] = test system: Human multiple myeloma suspension cells (U266); assay: Cell viability after PLK1 silencing, XTT assay; assay type: cell-based; conditions: U266, 48 hrs
Method: Human multiple myeloma suspension cells (U266) were incubated with siPLK1-LNPs or siCtl-LNPs composed of either lipid 38 or 55 at different concentrations for 48 hrs. Cell viability affected by PLK1 down regulation was measured by XTT assay.

[8] = test system: Human colon carcinoma cells (HCT116); assay: Toxicity of LNPs with ctl siRNA, XTT cell viability; assay type: cell-based; conditions: 72 hrs
Method: Human colon carcinoma cells (HCT116) were incubated with LNPs with ctl siRNA (see methods) for 72 hrs. The cell viability was measured by XTT assay. Toxicity of LNPs composed of either lipid 38 or lipid 55 is compared with gold standard LNPs composed of Dlin-MC3-DMA.

[9] = test system: Human multiple myeloma suspension cells (MM1); assay: Cell viability after PLK1 silencing, XTT assay; assay type: cell-based; conditions: MM1, 48 hrs
Method: Human multiple myeloma suspension cells (MM1) were incubated with siPLK1-LNPs or siCtl-LNPs composed of either lipid 38 or 55 at different concentrations for 48 hrs. Cell viability affected by PLK1 down regulation was measured by XTT assay.

[10] = test system: Human multiple myeloma suspension cells (U266); assay: PLK1 expression by qPCR after siPLK1-LNPs; assay type: cell-based; conditions: U266, 48 hrs, normalized to LNPs-ctl siRNA treated cells
Method: The mRNA levels of pololike kinase 1 (PLK1 gene) in cells was quantified by real-time PCR, forty eight or Seventy-two hours post-transfection. Total RNA was isolated using the E-Z RNA purification kit (Biological industries, Beit Haemek, Israel), and 1 μg of RNA from each sample was reverse transcribed into cDNA using the High Capacity cDNA Reverse Transcription Kit (Applied Biosystems, Foster City, CA), Quantification of cDNA (5 ng total) was performed on the step one Sequence Detection System (Applied Biosystems, Foster City, CA) using syber green (Applied Biosystems). GAPDH was chosen as a housekeeping gene.
Human multiple myeloma suspension cells (U266) were incubated with LNPs containing siPLK1 at different concentrations for 48 hrs. PLK1 expression was measured by qPCR. PLK1-mRNA levels were normalized to LNPs-ctl siRNA treated cells.

[11] = test system: murine macrophage cells (RAW 264.7); assay: In vitro delivery of luciferase mRNA, luminometer; assay type: cell-based; conditions: 18 hrs
Method: Hard to transfect murine macrophage cells (RAW 264.7) were treated with LNPs composed of either Lipid38 or Lipid 54 and formulated with luciferase mRNA at different amounts of mRNA. After 18 hrs luciferase expression was measured by luminometer.

Compound: CCCCC/C=C\C/C=C\CCCCCCCCN(CCCCCCCC/C=C\C/C=C\CCCCC)CCOC(=O)CCCN(C)C [Lipid 38]
- Cell viability, siCtl-LNPs [1]: no effect on the cell viability
- Cell viability, siPLK1-LNPs [1]: dose dependent effect on B-cell lymphoma cancer cell viability
- Zeta-potential (mV) [2]: 6.7 mV
- PDI ([2]; DLS): 0.08
- Size (d · nm) ([2]; DLS): 59.0 nm
- Delivery of pDNA to the nucleus [3]: efficiently delivering pDNA to the nucleus
- Luciferase expression after 8 hrs ([4]; 8 hrs): significant amounts of luciferase
- Luciferase expression after 24 hrs ([4]; 24 hrs): still high
- Liver toxicity (ALT, AST) [5]: No liver toxicity
- Luciferase expression in liver, 8 hrs versus 24 hrs [6]: high after 8 hrs compared to after 24 hrs
- Luciferase expression in liver ([6]; 8 hrs, 1 mg/kg): significant amount of luciferase in mouse liver compared to LNPs composed of lipid 54; also recorded: significant amount of luciferase expression was observed in liver
- Cell viability, siCtl-LNPs [7]: no effect on the cell viability
- Cell viability, siPLK1-LNPs [7]: more effect on cell viability compared to Dlin-MC3-DMA LNPs
- Toxicity of LNPs (cell viability) [8]: less toxic than LNPs composed of Dlin-MC3-DMA
- Cell viability, siCtl-LNPs [9]: no effect on the cell viability
- Cell viability, siPLK1-LNPs [9]: dose dependent effect on multiple myeloma cancer cell viability
- PLK1 expression, siPLK1-LNPs [10]: efficiently down regulate
- Dose dependence of luciferase expression ([11]; RAW 264.7, different amounts of mRNA): dose dependent expression was observed
- Luciferase expression ([11]; RAW 264.7, luciferase mRNA LNPs): efficiently compared to lipid 54-LNPs
